Test results taken from USRE48461E1, “Modulation of androgen receptor expression” (Ionis Pharmaceuticals, Inc., priority 2012, dated 2021).
Oligonucleotides are written 5' to 3', each unit as a sugar letter and its base; * is a phosphorothioate linkage, no mark a phosphodiester; rarer units and linkages stand in square brackets, end groups in braces. Plain capitals give the bases only. e = 2'-O-(2-methoxyethyl) (MOE); k = constrained ethyl (cEt); [5mC] = 5-methylcytosine; d = 2'-deoxy (DNA)

Tests used:
AR mRNA [1] = assay: Antisense inhibition of human AR in HuVEC cells, single concentration (electroporation, qRT-PCR RTS3559); format: cell-based; details: ~24 h
Procedure, shortened: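 AR mRNA levels were measured with human primer-probe set RTS3559 and adjusted for total RNA (RIBOGREEN). Cells were HuVEC, with each antisense oligonucleotide delivered by electroporation at one concentration.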

AR mRNA [2] = assay: AR mRNA in LnCaP cells by free uptake (hAR_LTS00943); format: cell-based, human; details: 24 hrs
Protocol: Cells were plated at a concentration of 4,000 cells/well in 96-well plates. ISIS oligonucleotides, specified in Table 68, were added individually at 0.02 μM, 0.10 μM, 0.50 μM, 2.50 μM, or 10.00 μM. After an incubation period of 24 hrs, mRNA levels were measured using primer probe set hAR_LTS00943.

AR mRNA [3] = assay: Dose-dependent antisense inhibition of human AR in HuVEC cells (electroporation, qRT-PCR RTS3559, IC50); format: cell-based; details: for inhibition of AR mRNA at 46.9 nM: 46.9 nM ASO; for inhibition of AR mRNA at 187.5 nM: 187.5 nM ASO; for inhibition of AR mRNA at 750.0 nM: 750.0 nM ASO; for inhibition of AR mRNA at 3000.0 nM: 3000.0 nM ASO
Procedure, shortened: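 HuVEC cells dosed with antisense oligonucleotides by electroporation and treated approximately 16 hours. AR mRNA quantified by real-time qPCR with primer probe set RTS3559 and normalised to total RNA by RIBOGREEN; IC50 from dose-response.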

[4] = 31.25 nM, HuVEC, ~16 h, Table 8
[5] = 125.0 nM, HuVEC, ~16 h, Table 8
[6] = 500.0 nM, HuVEC, ~16 h, Table 8
[7] = 1000.0 nM, HuVEC, ~16 h, Table 8
[8] = 62.5 nM, HuVEC, ~16 h, Table 10
[9] = 125.0 nM, HuVEC, ~16 h, Table 10
[10] = 500.0 nM, HuVEC, ~16 h, Table 10
[11] = 1000.0 nM, HuVEC, ~16 h, Table 10
[12] = 46.9 nM, HuVEC, ~16 h, Table 15
[13] = 187.5 nM, HuVEC, ~16 h, Table 15
[14] = 750.0 nM, HuVEC, ~16 h, Table 15
[15] = 3000.0 nM, HuVEC, ~16 h, Table 15

Row | Substance | Percent inhibition of AR mRNA (AR mRNA [2]; 0.02 μM) [%] | Percent inhibition of AR mRNA (AR mRNA [2]; 0.1 μM) [%] | Percent inhibition of AR mRNA (AR mRNA [2]; 0.5 μM) [%] | Percent inhibition of AR mRNA (AR mRNA [2]; 10 μM) [%] | % inhibition (AR mRNA [1]; 1,000 nM ASO, Table 13) [%] | percent inhibition of AR (AR mRNA [3]; [8]) [%] | percent inhibition of AR (AR mRNA [3]; [9]) [%] | percent inhibition of AR (AR mRNA [3]; [10]) [%] | percent inhibition of AR (AR mRNA [3]; [11]) [%] | IC50 (AR mRNA [3]; HuVEC, ~16 h, Table 10) [nM] | percent inhibition of AR (AR mRNA [3]; [12]) [%] | percent inhibition of AR (AR mRNA [3]; [13]) [%] | percent inhibition of AR (AR mRNA [3]; [14]) [%] | percent inhibition of AR (AR mRNA [3]; [15]) [%] | IC50 (AR mRNA [3]; HuVEC cells, electroporation) [nM] | inhibition of AR mRNA at 46.9 nM (AR mRNA [3]; HuVEC cells, electroporation) [%] | inhibition of AR mRNA at 187.5 nM (AR mRNA [3]; HuVEC cells, electroporation) [%] | inhibition of AR mRNA at 750.0 nM (AR mRNA [3]; HuVEC cells, electroporation) [%] | inhibition of AR mRNA at 3000.0 nM (AR mRNA [3]; HuVEC cells, electroporation) [%] | IC50 (AR mRNA [3]; HuVEC, ~16 h, Table 15) [nM] | other results
1 | 569213 (antisense kT*kG*kA*dT*dT*dT*dA*dA*dT*dG*dG*dT*kT*kG*k[5mC]*eA) [compound 569213] | 3 | 0 | 31 | 78 |  |  |  |  |  |  |  |  |  |  |  |  |  |  |  |  | % inhibition (AR mRNA [1]; 250 nM ASO, Table 7): 69%; percent inhibition of AR (AR mRNA [3]; [4]): 35%; percent inhibition of AR (AR mRNA [3]; 62.5 nM, HuVEC, ~16 h, Table 8): 53%; percent inhibition of AR (AR mRNA [3]; [5]): 65%; percent inhibition of AR (AR mRNA [3]; [6]): 94%; percent inhibition of AR (AR mRNA [3]; [7]): 96%; IC50 (AR mRNA [3]; HuVEC, ~16 h, Table 8): 60 nM
2 | 569216 (antisense eT*kG*kA*kT*dT*dT*dA*dA*dT*dG*dG*dT*kT*kG*k[5mC]*eA) [compound 569216] | 15 | 17 | 49 | 82 |  |  |  |  |  |  |  |  |  |  |  |  |  |  |  |  | % inhibition (AR mRNA [1]; 250 nM ASO, Table 7): 68%; percent inhibition of AR (AR mRNA [3]; [4]): 38%; percent inhibition of AR (AR mRNA [3]; 62.5 nM, HuVEC, ~16 h, Table 8): 51%; percent inhibition of AR (AR mRNA [3]; [5]): 68%; percent inhibition of AR (AR mRNA [3]; [6]): 91%; percent inhibition of AR (AR mRNA [3]; [7]): 96%; IC50 (AR mRNA [3]; HuVEC, ~16 h, Table 8): 50 nM
3 | 569221 (antisense eT*eG*kA*kT*kT*dT*dA*dA*dT*dG*dG*dT*dT*kG*k[5mC]*kA) [compound 569221] | 18 | 31 | 49 | 91 |  |  |  |  |  |  |  |  |  |  |  |  |  |  |  |  | percent inhibition of AR (AR mRNA [3]; 62.5 nM, HuVEC, ~16 h, Table 12): 12%; percent inhibition of AR (AR mRNA [3]; 125.0 nM, HuVEC, ~16 h, Table 12): 32%; percent inhibition of AR (AR mRNA [3]; 500.0 nM, HuVEC, ~16 h, Table 12): 57%; percent inhibition of AR (AR mRNA [3]; 1000.0 nM, HuVEC, ~16 h, Table 12): 73%; IC50 (AR mRNA [3]; HuVEC, ~16 h, Table 12): 294 nM
4 | 569227 (antisense eT*eG*kA*kT*kT*dT*dA*dA*dT*dG*dG*dT*kT*kG*k[5mC]*eA) [compound 569227] | 0 | 0 | 4 | 55 | 51 | 8 | 40 | 51 | 73 | 388 |  |  |  |  |  |  |  |  |  |  | percent inhibition of AR (AR mRNA [3]; 31.25 nM, HuVEC, ~16 h, Table 14): 13%; percent inhibition of AR (AR mRNA [3]; 62.5 nM, HuVEC, ~16 h, Table 14): 22%; percent inhibition of AR (AR mRNA [3]; 125.0 nM, HuVEC, ~16 h, Table 14): 45%; percent inhibition of AR (AR mRNA [3]; 500.0 nM, HuVEC, ~16 h, Table 14): 61%; percent inhibition of AR (AR mRNA [3]; 1000.0 nM, HuVEC, ~16 h, Table 14): 74%; IC50 (AR mRNA [3]; HuVEC, ~16 h, Table 14): 255 nM
5 | 579666 (antisense eT*kG*kA*eT*eT*kT*kA*dA*dT*dG*dG*dT*dT*dG*k[5mC]*kA) [compound 579666] | 0 | 8 | 30 | 68 |  | 33 | 34 | 64 | 80 | 229 |  |  |  |  |  |  |  |  |  |  | 
6 | 579667 (antisense eT*kT*kG*eA*eT*kT*kT*dA*dA*dT*dG*dG*dT*dT*kG*k[5mC]) [compound 579667] | 0 | 0 | 8 | 40 |  | 30 | 29 | 36 | 76 | 411 |  |  |  |  |  |  |  |  |  |  | 
7 | 586124 (kG*kA*kT*dT*dT*dA*dA*dT*dG*dG*dT*dT*dG*k[5mC]*kA*kA; further chemistry not given here) [compound 586124] | 0 | 0 | 19 | 82 | 82 |  |  |  |  |  | 28 | 47 | 84 | 94 | 130 | 28 | 47 | 84 | 94 | 130 | 
8 | 586224 (kT*kT*kG*kA*kT*dT*dT*dA*dA*dT*dG*dG*dT*kT*kG*k[5mC]; antisense) [compound 586224] |  |  |  |  | 90 |  |  |  |  |  | 39 | 75 | 93 | 98 | 50 | 39 | 75 | 93 | 98 | 50 | 
9 | 586225 (kG*kT*kT*kG*kA*dT*dT*dT*dA*dA*dT*dG*dG*kT*kT*kG; antisense) [compound 586225] |  |  |  |  | 88 |  |  |  |  |  | 17 | 61 | 89 | 97 | 130 | 17 | 61 | 89 | 97 | 130 | 
10 | 586227 (kT*kG*kA*kT*kT*dT*dA*dA*dT*dG*dG*dT*dT*kG*k[5mC]*kA; antisense) [compound 586227] | 0 | 0 | 14 | 59 | 87 |  |  |  |  |  | 20 | 60 | 88 | 96 | 130 | 20 | 60 | 88 | 96 | 130 | 
